Reference: article PMC9114170, “Investigation of the Role of Hydrophobic Amino Acids on the Structure-Activity Relationship in the Antimicrobial Venom Peptide Ponericin L1” (The Journal of membrane biology, 2021)
Ends that are not written are not given here.

Columns and labels:
[1] = Red edge excitation shift (REES) solution aggregation assay; format: physicochemical; settings: 2 μM peptide in PBS pH 7.0, λex 280 to 307 nm, emission 310 to 410 nm, Trp fluorescence, average of three replicates
From the text: All fluorescence spectroscopy experiments were preformed using a JY-Horiba Fluoromax4 instrument. Excitation and emission slit widths were kept consistent at 2.5 nm. Semi-micro quartz cuvettes were utilized for each experiment. The following formula was used to calculate a spectral barycenter for each experiment: (1) B=∑λ*i/∑i where B is the barycenter, λ is the wavelength, and i is the intensity at the specified wavelength. An entire emission spectrum from 300-400 was used the carry out the calculation of barycenter.
Red edge excitation shift (REES) experiments utilized excitation at 6 different wavelengths (λex = 280, 290, 295, 300, 305, and 307 nm) and the same emission range of 310 to 410 nm. Samples were similarly prepared as above. A blank only containing PBS buffer was used as background to correct the spectra after each addition.
Aggregation of peptides was assessed utilizing the intrinsic fluorescence properties of the Trp residue in the L1 sequence. […] Differences in the side chain motion/dynamics of the Trp residue and the local environment around the Trp can be observed by monitoring the red-edge excitation shifts (REES). […]

[2] = Trichloroethanol (TCE) quenching of Trp fluorescence, solution aggregation assay; format: physicochemical; settings: 2 μM peptide in PBS pH 7.0, titration with 10M TCE, λex 280 nm, λem 340, average of three replicates
Method: Trichloroethanol (TCE) quenching was monitored by titration of samples with 10 μL aliquots of 10M TCE (Alfa Aesar, Haverhill, Massachusetts) into peptide samples prepared as described above. After each addition of TCE, Trp fluorescence intensity was measured using λex = 280 nm and λem = 340. Corrections to the emission intensity were made for background subtraction and dilutions. The slope of the linear best fit equation to the data (eqn 2) was used as the Stern-Volmer quenching constant (Ksv) (2) F0/F=1+Ksv[Q] where F0 is the fluorescence intensity in the absence of quencher, and F is the fluorescence intensity in the presence of a given concentration of quencher [Q].
The environment of the L1 Trp residue was further probed using fluorescence quenching by trichloroethanol (TCE) which selectively exerts quenching on Trp residues which are shielded from the aqueous milieu, such as at the interior of a peptide aggregate. The results are shown in Figure 2B, with the Ksv values for the quenching shown in Supplemental Table 1. […] However, considering the reduced overall hydrophobicity of this peptide and thus higher aqueous solubility, decreased TCE quenching is not surprising.

[3] = Acrylamide quenching of Trp fluorescence in absence and presence of lipid vesicles; format: physicochemical; settings: 2 μM peptide in PBS pH 7.0, λex 295 nm, λem 340, average of three replicates ± SD; for Acrylamide quenching Ksv, PCPG: 3:1 DOPC:DOPG vesicles; for Acrylamide quenching Ksv, PCPG / Acrylamide quenching Ksv, PEPG / Acrylamide quenching Ksv, PC / Acrylamide quenching Ksv, PC/Chol: 250 μM lipid; for Acrylamide quenching Ksv, PEPG: 3:1 POPE:DOPG vesicles; for Acrylamide quenching Ksv, PC: DOPC vesicles; for Acrylamide quenching Ksv, PC/Chol: DOPC:Cholesterol vesicles; for Acrylamide quenching Ksv, PBS: no lipid vesicles
Method: To form small unilamellar vesicles (SUVs) sonication or ethanol dilution methods were implemented ([Caputo & London, 2019]). In all cases, lipid vesicle preparation was the same. Depending on the lipid composition, appropriate volumes of lipids in chloroform were mixed in a glass tube and then allowed to dry under N2 gas for 15 minutes. The lipid films were then placed in a vacuum desiccator and allowed to dry further under a vacuum for 1 hour. For vesicles formed through ethanol dilution methods, 10 μL of pure ethanol was added to the film, and then vortex until the dissipation of the film. While continuing to vortex, the appropriate amount of PBS was added. For vesicles formed using the method of sonication, PBS was added directly to the tube while being vortexed to create multilamellar vesicles (MLVs). The MLV suspension was covered with parafilm and then placed in a high-powered bath sonicator (Avanti Lipids) and subjected to sonication for 20 minutes to create SUVs.
Acrylamide quenching was monitored by titration of samples with 10 μL aliquots of 4M acrylamide titrated into peptide samples prepared as described above. These samples contained either or [0.25] mM total lipid. After each addition of acrylamide, Trp fluorescence intensity was measured using λex = 295 nm and λem = 340. Corrections to the emission intensity were made for background subtraction, dilutions, and inner filter effects in the excitation path as described previously. The same method to calculate Ksv was used as above.
In order to gain more insight into the bilayer interactions, fluorescence quenching approaches were utilized. The peptides were exposed to the aqueous quencher acrylamide in solution or when bound to vesicles. […] Thus, peptide Trp exposure to the aqueous milieu can be gauged by the extent of quenching by acrylamide. Stern-Volmer quenching plots were created to analyze the data and Ksv (slopes of a linear fit to the data) are shown in Figure 4 and Table 2. […] In the case of L1L and L1I, there was a significant reduction in quenching between the solution (free) state of the peptide and when bound to anionic vesicles, but a much smaller reduction if any when interacting with zwitterionic vesicles. This is consistent with a more deeply buried Trp in anionic bilayers.

[4] = tested on: Gram-positive and Gram-negative strains; test: Antimicrobial activity over the MIC panel; format: cell-based; settings: highest concentration tested 15μM
Method: Six different strains of bacteria were streaked on LB-Miller agar plates from a frozen glycerol stock derived from the original samples shipped from CGSC (Coli Genetic Stock Center, Yale University) or ATCC (American Type Culture Collection) (Escherichia coli D31 CGSC 5165 ([Burman, Nordstrom & Boman, 1968]), Staphylococcus aureus ATCC 35556. Pseudomonas aeruginosa PA-01 ATCC 47085, Acinetobacter baumannii ATCC 19606). For each of the strains a liquid overnight culture was prepared using a single colony into fresh LB broth and placed in a shaking incubator for ~ 18 hours at 37 C at 225 rpm. After the incubation period, a 1:200 dilution was made in fresh LB broth and then used for experimentation. Minimal Inhibitory Concentration (MIC) determinations were performed using mid-log phase bacteria diluted to 5 x 10^5 CFU/mL. Next, 90 μL of this diluted culture was then pipetted into a sterile 96-well plate that contains serially diluted aliquots of the peptide variants to consist of a total volume of 100 μL. This plate was then incubated for 18 hours at 37 C. Bacterial growth was determined by taking an OD600 measurement using a Spectramax M5 multimode plate reader post incubation. Minimal Bactericidal Concentration (MBC) was performed by taking 1 μL of the culture from the MIC plate and then pipetting it on to a fresh LB agar plate. After plating this culture, the plate was then incubated overnight at 37 C. MBC was determined by the growth or the lack of growth from each well on the agar plate.
The ability of L1 and the hydrophobic variants to act as antimicrobials was investigated using the Minimal Inhibitory Concentration (MIC) and Minimal Bactericidal Concentration (MBC) assays as previously described ([Wiegand, Hilpert & Hancock, 2008]). The MIC is determined as the lowest concentration of peptide required to inhibit bacterial growth in solution, while the MBC is the lowest concentration required to act in a bactericidal mechanism (as opposed to bacteriostatic) and is determined by plating MIC cultures on antimicrobial-free media. Peptides were screened against E. coli, S. aureus, A. baumannii, P. aeruginosa, B. subtilis, and K. pneumoniae.

[5] = tested on: E. coli D31 outer membrane; test: E. coli outer membrane permeabilization (nitrocefin / β-lactamase); format: cell-based, Escherichia coli; settings: E. coli D31, nitrocefin hydrolysis, absorbance 486 nm, up to 90 minutes; peptide serially diluted from 15 μM; average of three replicates
Method: A single colony of E.coli D31 was taken from an LB agar plate and inoculated into fresh LB broth with 100 μg/mL ampicillin (LB-Amp), then place in a shaking incubator at 37 C (225 rpm) for ~ 18 hours. After the incubation period 100 μL was taken from the culture and diluted with 25 mL of fresh LB-Amp. The dilution was further incubated in the same conditions until an OD600 of 0.2 to 0.4 was obtained. Once the specified OD600 was reached the culture was then centrifuged at 2500 rpm for 15 minutes in a tabletop clinical centrifuge. The supernatant was discarded and then an equal amount of PBS (100 mM NaH2PO4, 200 mM NaCl, pH7) was used to resuspend the pellet.
Experimental samples were prepared in a 96-well plate in the order as follows: 10 μL of the six peptide variants that were serially diluted starting a concentration of 15 μM with the exception of the last row (used as a negative control 10 μL of 0.01% acetic acid). 80 μL of the resuspended bacteria culture, and 10 μL of 50 μg/mL nitrocefin in PBS. The absorbance was recorded at 486 nm in 5-minute intervals for a total run time of 90 minutes immediately following the addition of nitrocefin. The antimicrobial agent polymyxin B was used as a positive control. The values presented are the average of three replicates.
As the mechanism of action of the L1 venom peptide is likely a membrane disruptive mechanism, the effect of the hydrophobic substitutions on membrane permeabilization was investigated using E.coli and ovine red blood cells (RBCs). The permeabilization of the E. coli outer membrane was assayed using an enzyme-substrate pair in which the enzyme (β-lactamase) is located in the periplasmic space while the substrate (the chromogenic nitrocefin) is added to the exterior of cells. […] Similarly, the permeabilization of the E. coli inner membrane was assessed using a cytoplasmic enzyme, β-galactosidase, and a chromogenic substrate, ONPG. […]

[6] = tested on: Sheep red blood cells (RBCs); settings: earlier work of the group; ref Senetra, Necelis & Caputo, 2020b; cited from earlier work
From the text: The ponerine ant, Neoponera goeldii (previously classified as Pachycondyla goeldii), produces a mixture of venom peptides known as ponericins ([Orivel et al., 2001]). These peptides have been subdivided into three sub-classes based on the amino acid sequences (L, W, and G) and contain a total of 15 independent peptide sequences. […] Among these peptides, the L1 sequence was the most poorly characterized.

Sequence | REES total shift [1] | TCE quenching of Trp fluorescence (extent) [2] | Acrylamide quenching Ksv, PCPG [3] [M⁻¹] | Acrylamide quenching Ksv, PEPG [3] [M⁻¹] | Acrylamide quenching Ksv, PC [3] [M⁻¹] | Acrylamide quenching Ksv, PC/Chol [3] [M⁻¹] | Acrylamide quenching Ksv, PBS [3] [M⁻¹] | Antimicrobial activity (summary of MIC results) [4] | Outer membrane permeabilization [5] | Hemolytic activity [6]
VVKEVWTKMKGAGKAVVGKVKGVV [L1V] | ~ 10 nm | showed the most quenching | 16.86 ± 6.47 | 5.64 ± 0.38 | 4.18 ± 0.15 | 12.19 ± 1.54 | 12.14 ± 1.59 | no antimicrobial activity | – | –
IIKEIWTKMKGAGKAIIGKIKGII [L1I] | – | – | 8.72 ± 2.09 | 3.39 ± 2.25 | 4.9 ± 1.51 | 12.65 ± 0.63 | 10.5 ± 0.67 | broad spectrum activity | no membrane disruption above background | –
AAKEAWTKMKGAGKAAAGKAKGAA [L1A] | – | markedly lower than the others | 10.9 ± 0.26 | 3.59 ± 0.58 | 8.51 ± 0.46 | 10.79 ± 0.27 | 8.19 ± 0.90 | no antimicrobial activity | – | –
LLKELWTKMKGAGKAVLGKIKGLL [L1, ponericin L1] | – | – | – | – | – | – | – | – | – | very low level of hemolytic activity
